The target of data set [1] is T1, Histone deacetylase 4 (Homo sapiens, UniProt P56524). Briefly: Inhibition of HDAC4 in human HeLa cells incubated for 1 hr by mass spectrometry method. The format is cell-based.
In data set [2] the target is T2, Histone deacetylase 1 (Homo sapiens, UniProt Q13547). Briefly: Inhibition of recombinant HDAC1 (unknown origin) using AMC-K(Ac)GL as substrate by fluorescence based analysis.
Data set [3] concerns the target T3, Protein deacetylase HDAC6 (Homo sapiens, UniProt Q9UBN7). The experiment in a line: Inhibition of recombinant HDAC6 (unknown origin) using AMC-K(Ac)GL as substrate by fluorescence based analysis.
Another data set concerns HT-29. Briefly: Inhibition of colony formation in human HT-29 cells at 0.5 to 5 uM measured after 10 days by methylene blue staining based analysis relative to control. The format is functional. To be noted: dose 0.5-5 µM, time 10 day.
The nature of data set [4]: Inhibition of HDAC in Sprague-Dawley rat hepatocytes using Fluor de Lys as substrate incubated for 15 mins by fluorometric assay. The format is cell-based. As to conditions: Hepatocyte, 0.25 h.
Data set [5] concerns MCF7. Briefly: cells. To be noted: Homo sapiens, MCF7, 72 h.
Description: Antiproliferative activity against human MCF7 cells assessed as cell growth inhibition measured after 72 hrs by MTT assay
Data set [6] deals with HepG2. Briefly: cells. As to conditions: Homo sapiens, HepG2, 72 h.
Description: Antiproliferative activity against human HepG2 cells assessed as cell growth inhibition measured after 72 hrs by MTT assay
The test system of data set [7] is HepG2. Briefly: Antiproliferative activity against human HepG2 cells assessed as cell growth inhibition. The format is functional, cell-based.
A further data set concerns Huh-7. Briefly: Antiproliferative activity against human Huh-7 cells assessed as cell growth inhibition. The format is functional, cell-based.
Another data set deals with HA22T cell line. The experiment in a line: Antiproliferative activity against human HA22T cell line assessed as cell growth inhibition. The class given is functional, cell-based.
Data set [8] in a line: Cytotoxicity against human CCD-18Co assessed as cell growth inhibition. The format is toxicity, cell-based. As to conditions: CCD-18Co cells.
In another data set the test system is Hep 3B2. Briefly: Antiproliferative activity against human Hep3B cells assessed as cell growth inhibition. The class given is functional, cell-based.
The next data set relates to AGS. Briefly: Antiproliferative activity against human AGS cells assessed as cell growth inhibition. The format is functional, cell-based.
Data set [9] concerns MCF7. The experiment in a line: cells. As to conditions: Homo sapiens.
The test system of another data set is MCF10. Briefly: Antiproliferative activity against human MCF10 cells assessed as cell growth inhibition. The class given is functional, cell-based.
In data set [10] the target is T4, Histone deacetylase 2 (Homo sapiens, UniProt Q92769). Briefly: Inhibition of HDAC2 in human MCF7 cells using TMB as substrate incubated for 2 hrs by ELISA analysis. The format is cell-based. A general note: In an ELISA, binding on a coated surface is turned into a signal by an enzyme label.
For data set [11], the target named is T2, Histone deacetylase 1. Briefly: Inhibition of HDAC1 in human MCF7 cells using TMB as substrate incubated for 2 hrs by ELISA analysis. The class given is cell-based.
The target of the next data set is Tubulin beta. Briefly: Inhibition of beta-tubulin polymerization in human MCF7 cells using TMB as substrate incubated for 2 hrs by spectrophotometry analysis. The class given is cell-based.
The next data set deals with P388. The experiment in a line: Cytotoxicity against mouse P388 cells assessed as cell growth inhibition. The class given is functional, cell-based.
The next data set has as its system MDA-MB-231. The experiment in a line: Antiproliferative activity against human MDA-MB-231 cells assessed as cell growth inhibition. The format is functional, cell-based.
Data set [12] has as its target T4, Histone deacetylase 2. Briefly: Inhibition of human recombinant full-length His-tagged HDAC2 expressed in baculovirus expression system incubated for 2 hrs by fluorescence based analysis.
Another data set addresses Histone deacetylase 3 (Homo sapiens, UniProt O15379). Briefly: Inhibition of human recombinant His-tagged HDAC3 expressed in baculovirus expression system incubated for 2 hrs by fluorescence based analysis.
In data set [13] the test system is T47D. The experiment in a line: Antiproliferative activity against human T47D cells assessed as cell growth inhibition. The format is functional, cell-based.
Another data set has as its target Histone deacetylase 8 (Homo sapiens, UniProt Q9BY41). The experiment in a line: Inhibition of human recombinant His-tagged HDAC8 expressed in Escherichia coli incubated for 2 hrs by fluorescence based analysis.
In another data set the test system is BT-20. The experiment in a line: Antiproliferative activity against human BT-20 cells assessed as cell growth inhibition. The format is functional, cell-based.
For data set [14], the target named is T2, Histone deacetylase 1. Briefly: Inhibition of human recombinant His-tagged HDAC1 expressed in baculovirus expression system incubated for 2 hrs by fluorescence based analysis.
In the next data set the test system is BT-474. Briefly: Antiproliferative activity against human BT-474 cells assessed as cell growth inhibition by SRB assay. The class given is functional, cell-based. Background: In SRB staining, fixed cells bind dye roughly in proportion to their protein.
In data set [15] the test system is T47D. Briefly: Antiproliferative activity against human T47D cells assessed as cell growth inhibition by burton method. The format is functional, cell-based.
The test system of data set [16] is MCF7. The experiment in a line: cells. To be noted: Homo sapiens. This is another data set of the same source.
Description: Antiproliferative activity against human MCF7 cells assessed as cell growth inhibition by SRB assay
Data set [17] has as its target T1, Histone deacetylase 4. Briefly: Inhibition of HDAC4 (unknown origin).
The next data set has as its target Histone deacetylase 5 (Homo sapiens, UniProt Q9UQL6). Briefly: Inhibition of HDAC5 (unknown origin).
For data set [18], the target named is T3, Protein deacetylase HDAC6. Briefly: Inhibition of HDAC6 (unknown origin).
For data set [19], the target named is T2, Histone deacetylase 1. Briefly: Inhibition of HDAC1 (unknown origin).
Data set [20] can be described thus: Half life in mouse. The class given is ADME, organism-based. To be noted: in vivo.

Converted amounts (≈) assume the structure as drawn.

T2 sequence (Q13547 whole entry): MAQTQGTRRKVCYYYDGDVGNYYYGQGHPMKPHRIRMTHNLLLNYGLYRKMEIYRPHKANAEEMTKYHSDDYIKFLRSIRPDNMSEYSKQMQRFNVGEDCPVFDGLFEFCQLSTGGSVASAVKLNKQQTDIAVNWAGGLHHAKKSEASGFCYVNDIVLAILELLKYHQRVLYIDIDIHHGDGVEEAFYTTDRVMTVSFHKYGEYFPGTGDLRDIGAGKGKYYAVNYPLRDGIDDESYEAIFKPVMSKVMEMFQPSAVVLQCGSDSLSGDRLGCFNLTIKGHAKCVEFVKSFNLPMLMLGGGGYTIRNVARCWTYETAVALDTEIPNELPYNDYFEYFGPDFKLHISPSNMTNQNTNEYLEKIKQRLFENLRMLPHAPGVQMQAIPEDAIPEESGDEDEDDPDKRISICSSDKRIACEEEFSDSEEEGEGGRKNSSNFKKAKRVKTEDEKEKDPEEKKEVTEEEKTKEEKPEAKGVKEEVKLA
T1 sequence (P56524 whole entry): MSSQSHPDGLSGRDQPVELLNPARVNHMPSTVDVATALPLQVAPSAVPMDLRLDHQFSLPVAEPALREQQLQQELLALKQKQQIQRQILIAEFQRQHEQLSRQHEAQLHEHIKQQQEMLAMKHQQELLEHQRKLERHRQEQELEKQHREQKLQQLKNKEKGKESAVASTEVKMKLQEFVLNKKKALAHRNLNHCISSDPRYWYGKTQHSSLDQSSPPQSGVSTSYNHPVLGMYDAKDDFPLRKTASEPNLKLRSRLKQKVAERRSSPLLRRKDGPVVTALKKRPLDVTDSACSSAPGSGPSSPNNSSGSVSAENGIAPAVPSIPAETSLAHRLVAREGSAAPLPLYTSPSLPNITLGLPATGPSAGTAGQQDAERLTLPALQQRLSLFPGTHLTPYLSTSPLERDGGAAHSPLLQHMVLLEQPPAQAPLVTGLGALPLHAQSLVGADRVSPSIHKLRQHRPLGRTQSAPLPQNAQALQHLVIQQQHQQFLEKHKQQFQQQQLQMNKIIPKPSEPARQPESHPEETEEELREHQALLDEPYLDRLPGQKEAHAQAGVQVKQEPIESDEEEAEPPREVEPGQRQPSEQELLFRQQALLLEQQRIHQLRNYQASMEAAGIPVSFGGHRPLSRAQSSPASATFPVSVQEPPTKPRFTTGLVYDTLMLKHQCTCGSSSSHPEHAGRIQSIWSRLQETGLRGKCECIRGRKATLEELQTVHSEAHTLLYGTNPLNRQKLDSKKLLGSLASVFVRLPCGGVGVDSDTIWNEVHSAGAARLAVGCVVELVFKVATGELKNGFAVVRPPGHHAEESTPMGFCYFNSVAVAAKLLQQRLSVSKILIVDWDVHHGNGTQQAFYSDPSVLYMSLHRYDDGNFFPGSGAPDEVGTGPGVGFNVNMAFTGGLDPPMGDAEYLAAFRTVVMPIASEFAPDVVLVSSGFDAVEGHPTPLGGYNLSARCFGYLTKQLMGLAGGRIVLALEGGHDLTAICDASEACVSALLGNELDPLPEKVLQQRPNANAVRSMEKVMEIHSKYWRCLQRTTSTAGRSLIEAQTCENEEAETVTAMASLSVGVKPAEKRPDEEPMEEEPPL
T4 sequence (Q92769 whole entry): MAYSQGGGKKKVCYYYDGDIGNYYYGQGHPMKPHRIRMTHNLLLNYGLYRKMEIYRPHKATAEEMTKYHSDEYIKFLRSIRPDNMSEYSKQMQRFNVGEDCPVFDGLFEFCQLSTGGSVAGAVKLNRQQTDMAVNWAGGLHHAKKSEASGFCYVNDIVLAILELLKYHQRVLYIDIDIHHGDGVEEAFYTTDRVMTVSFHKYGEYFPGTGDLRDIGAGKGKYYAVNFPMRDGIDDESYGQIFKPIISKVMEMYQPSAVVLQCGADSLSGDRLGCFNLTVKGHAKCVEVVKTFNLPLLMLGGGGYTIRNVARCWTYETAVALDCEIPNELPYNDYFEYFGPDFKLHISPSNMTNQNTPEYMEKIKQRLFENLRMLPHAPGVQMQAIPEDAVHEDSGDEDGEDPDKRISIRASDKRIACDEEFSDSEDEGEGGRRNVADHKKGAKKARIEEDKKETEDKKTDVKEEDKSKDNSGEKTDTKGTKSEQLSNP
T3 sequence (Q9UBN7 whole entry): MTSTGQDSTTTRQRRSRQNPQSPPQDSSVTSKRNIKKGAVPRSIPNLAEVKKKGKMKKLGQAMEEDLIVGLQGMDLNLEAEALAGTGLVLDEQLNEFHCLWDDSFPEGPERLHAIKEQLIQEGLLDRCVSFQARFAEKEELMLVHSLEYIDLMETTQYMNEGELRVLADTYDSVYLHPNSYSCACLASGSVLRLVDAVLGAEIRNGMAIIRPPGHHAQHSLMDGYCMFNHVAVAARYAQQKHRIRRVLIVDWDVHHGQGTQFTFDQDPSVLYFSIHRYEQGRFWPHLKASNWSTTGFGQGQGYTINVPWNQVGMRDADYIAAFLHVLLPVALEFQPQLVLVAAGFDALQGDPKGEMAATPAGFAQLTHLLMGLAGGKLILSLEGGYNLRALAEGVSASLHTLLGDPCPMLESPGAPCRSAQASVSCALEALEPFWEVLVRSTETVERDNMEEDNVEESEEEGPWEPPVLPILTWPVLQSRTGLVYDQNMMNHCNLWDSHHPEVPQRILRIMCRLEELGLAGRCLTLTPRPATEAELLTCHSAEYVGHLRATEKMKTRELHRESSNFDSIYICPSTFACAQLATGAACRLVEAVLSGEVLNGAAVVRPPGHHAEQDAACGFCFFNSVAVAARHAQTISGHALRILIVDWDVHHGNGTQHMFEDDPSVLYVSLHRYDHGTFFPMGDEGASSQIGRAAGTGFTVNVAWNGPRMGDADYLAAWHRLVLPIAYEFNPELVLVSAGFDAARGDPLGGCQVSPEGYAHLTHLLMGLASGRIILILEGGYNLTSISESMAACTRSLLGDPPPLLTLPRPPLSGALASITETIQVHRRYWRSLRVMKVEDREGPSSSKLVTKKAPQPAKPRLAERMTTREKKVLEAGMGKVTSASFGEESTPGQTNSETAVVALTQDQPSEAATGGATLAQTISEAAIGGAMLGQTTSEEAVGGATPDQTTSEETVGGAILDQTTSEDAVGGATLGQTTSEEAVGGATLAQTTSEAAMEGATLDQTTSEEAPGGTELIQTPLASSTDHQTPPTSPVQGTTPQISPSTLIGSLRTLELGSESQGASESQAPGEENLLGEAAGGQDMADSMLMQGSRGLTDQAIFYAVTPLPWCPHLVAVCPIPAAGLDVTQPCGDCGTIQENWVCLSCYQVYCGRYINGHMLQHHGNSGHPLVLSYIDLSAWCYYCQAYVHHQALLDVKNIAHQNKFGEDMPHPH
Histone deacetylase 5, sequence (Q9UQL6 whole entry): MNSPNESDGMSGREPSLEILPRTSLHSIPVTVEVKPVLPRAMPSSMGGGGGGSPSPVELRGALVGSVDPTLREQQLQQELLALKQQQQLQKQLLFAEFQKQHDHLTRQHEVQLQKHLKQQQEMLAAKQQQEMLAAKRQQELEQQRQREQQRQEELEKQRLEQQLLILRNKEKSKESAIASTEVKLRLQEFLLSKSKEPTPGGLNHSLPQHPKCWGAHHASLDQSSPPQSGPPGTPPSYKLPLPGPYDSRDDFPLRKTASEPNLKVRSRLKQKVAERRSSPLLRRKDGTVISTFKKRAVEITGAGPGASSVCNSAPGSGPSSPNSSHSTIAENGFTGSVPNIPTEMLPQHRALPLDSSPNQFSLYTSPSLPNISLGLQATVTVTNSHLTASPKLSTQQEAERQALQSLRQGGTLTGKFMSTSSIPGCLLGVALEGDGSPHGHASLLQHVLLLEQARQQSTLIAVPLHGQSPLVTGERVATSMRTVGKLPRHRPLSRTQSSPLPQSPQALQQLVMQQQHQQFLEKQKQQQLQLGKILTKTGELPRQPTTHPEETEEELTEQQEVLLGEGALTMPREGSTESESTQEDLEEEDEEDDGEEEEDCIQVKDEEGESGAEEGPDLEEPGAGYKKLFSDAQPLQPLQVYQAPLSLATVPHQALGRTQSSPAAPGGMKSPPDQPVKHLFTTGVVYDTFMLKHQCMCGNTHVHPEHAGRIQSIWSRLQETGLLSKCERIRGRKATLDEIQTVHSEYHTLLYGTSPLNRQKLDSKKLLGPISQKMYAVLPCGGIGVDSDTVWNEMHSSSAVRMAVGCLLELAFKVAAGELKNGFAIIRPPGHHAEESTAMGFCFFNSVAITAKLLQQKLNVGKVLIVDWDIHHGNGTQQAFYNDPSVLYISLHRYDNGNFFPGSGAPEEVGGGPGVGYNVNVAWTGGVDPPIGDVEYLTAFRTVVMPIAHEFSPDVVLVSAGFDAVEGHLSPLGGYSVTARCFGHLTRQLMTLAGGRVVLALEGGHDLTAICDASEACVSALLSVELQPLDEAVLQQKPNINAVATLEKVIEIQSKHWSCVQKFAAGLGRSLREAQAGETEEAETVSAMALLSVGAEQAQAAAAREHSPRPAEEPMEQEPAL
Histone deacetylase 3, sequence (O15379 whole entry): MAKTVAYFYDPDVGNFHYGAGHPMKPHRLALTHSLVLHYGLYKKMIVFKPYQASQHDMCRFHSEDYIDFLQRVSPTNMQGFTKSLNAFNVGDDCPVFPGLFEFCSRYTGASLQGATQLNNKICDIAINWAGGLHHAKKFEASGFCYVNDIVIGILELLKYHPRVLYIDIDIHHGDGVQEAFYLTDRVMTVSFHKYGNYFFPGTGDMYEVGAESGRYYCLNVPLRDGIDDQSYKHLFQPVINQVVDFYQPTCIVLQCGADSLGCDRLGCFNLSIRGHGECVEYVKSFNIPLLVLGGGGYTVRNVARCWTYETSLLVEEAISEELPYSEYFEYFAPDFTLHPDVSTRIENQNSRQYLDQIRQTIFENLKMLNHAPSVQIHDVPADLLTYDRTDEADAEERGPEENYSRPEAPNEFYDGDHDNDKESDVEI

`C[C@@H](O)C(=O)CCCCC[C@@H]1NC(=O)[C@H]2CCCN2C(=O)[C@H](Cc2ccccc2)NC(=O)[C@H](Cc2ccccc2)NC1=O`: the IC50 (in general, the midpoint of a concentration-inhibition curve) at Histone deacetylase 4 [1] was found to be 0.28 µM.
`CC(C)(C)OC(=O)Nc1cccc(C(=O)/C=C/c2ccc(/C=C/C(=O)NO)cc2)c1`: the IC50 worked out at 2.9 µM on Histone deacetylase 1 [2] and 0.01 µM in data set [3]. The “inhibition (INH)” value with HT-29 is reported as “<=60%”.
In data set [4], `CN(C)c1ccc(C(=O)NCCCCCC(=O)NO)cc1` gave an IC50 of 0.024 µM.
`CC[C@]1(C)NC(=O)[C@H](CCCCCC(=O)[C@@H](C)O)NC(=O)[C@H]2CC(C)(C)CN2C(=O)[C@H](Cc2ccccc2)NC1=O` came in with an IC50 against Histone deacetylase 4 [1] of 0.09 µM.
On the same count and under the same terms, to `CC[C@]1(C)NC(=O)[C@H](CCCCCC(=O)[C@@H](C)O)NC(=O)[C@H]2CCCN2C(=O)[C@H](Cc2ccccc2)NC1=O` belongs 0.05 µM; to `C[C@H](O)C(=O)CCCCC[C@@H]1NC(=O)[C@H]2CCCN2C(=O)[C@H](Cc2ccccc2)NC(=O)C(C)(C)NC1=O`, 0.33 µM; to `C[C@@H](O)C(=O)CCCCC[C@@H]1NC(=O)[C@H]2CCCN2C(=O)[C@H](Cc2ccccc2)NC(=O)C(C)(C)NC1=O`, 0.03 µM.
On to `CC[C@@H]1NC(=O)[C@H](CCCCCC(=O)[C@H](C)O)NC(=O)[C@H]2CCCN2C(=O)[C@H](Cc2ccccc2)NC1=O`, for which the IC50 against Histone deacetylase 4 [1] came to 1 µM.
Consider `O=C(/C=C/c1ccc([N+](=O)[O-])cc1)c1ccc(NC(=O)c2ccc(CN3C(=O)c4ccccc4C3=O)cc2)cc1`, for which the figures for the IC50 in the data set with MCF7 [5] and with HepG2 [6] were 9.78 µM and 15.8 µM, respectively.
Turning to `CCC(=O)CCCCC[C@@H]1NC(=O)[C@H]2CCCCN2C(=O)[C@H]([C@@H](C)CC)NC(=O)[C@H](Cc2cc3ccccc3n2OC)NC1=O`, the IC50 (in the data set on HepG2 [7]; in the data set with Huh-7; with HA22T cell line; in [8]; in the data set with Hep 3B2; in the data set on AGS) was 0.19 µM in each case. Moreover, the IC50 in the data set with MCF7 [9] and in the data set on MCF10 was 0.19 µM throughout.
The molecule `Cc1c[nH]c([C@@H]2NC(=O)[C@H](CCCCCC(=O)[C@H](C)O)NC(=O)[C@H]3CCCN3C(=O)[C@H](Cc3ccccc3)NC2=O)n1` showed an IC50 against Histone deacetylase 4 [1] of 350 µM.
For the molecule `COc1ccc(/C=C/C(=O)c2ccc(NC(=O)c3ccc(CN4C(=O)c5ccccc5C4=O)cc3)cc2)cc1`, the IC50 in the data set with MCF7 [5] stood at 2.41 µM; in the data set on HepG2 [6], 1.87 µM.
For the molecule `COc1ccc(/C=C/C(=O)c2ccc(NC(=O)c3ccc(CN4C(=O)c5ccccc5C4=O)cc3)cc2)c(OC)c1`, the figures for the IC50 in the data set on MCF7 [5] and in the data set on HepG2 [6] were 2.09 µM and 1.75 µM, respectively.
On the same counts, the results for `O=C(/C=C/c1ccc(Cl)cc1)c1ccc(NC(=O)c2ccc(CN3C(=O)c4ccccc4C3=O)cc2)cc1` are 4.11 µM and 3.21 µM.
On the same counts, the results for `O=C(/C=C/c1ccccc1)c1ccc(NC(=O)c2ccc(CN3C(=O)c4ccccc4C3=O)cc2)cc1` are 14.4 µM and 12.9 µM.
For `O=C(/C=C/c1cc2ccc1CCc1ccc(cc1)CC2)c1ccc(NC(=O)c2ccc(CN3C(=O)c4ccccc4C3=O)cc2)cc1`, the figures for the IC50 with MCF7 [5] and in the data set on HepG2 [6] were 5.28 µM and 8.47 µM, respectively.
Taken in the same sequence, the figures for `O=C(/C=C/c1cccc2ccccc12)c1ccc(NC(=O)c2ccc(CN3C(=O)c4ccccc4C3=O)cc2)cc1` were 11.3 µM and 8.07 µM.
With `Cc1cc(/C=C/C(=O)c2ccc(NC(=O)c3ccc(CN4C(=O)c5ccccc5C4=O)cc3)cc2)cc(C)c1C`, the IC50 in the data set on MCF7 [5] was 1.88 µM; against Histone deacetylase 2 [10], 0.43 µM; in the data set with HepG2 [6], 1.62 µM; against Histone deacetylase 1 [11] it was 0.22 µM; on Tubulin beta, 2.32 µM.
For `O=C(/C=C/C1Oc2ccccc2O1)c1ccc(NC(=O)c2ccc(CN3C(=O)c4ccccc4C3=O)cc2)cc1`, the figures for the IC50 in the data set with MCF7 [5] and with HepG2 [6] were 3.45 µM and 1.96 µM, respectively.
On the same counts, the results for `O=C(/C=C/c1ccccc1-c1ccco1)c1ccc(NC(=O)c2ccc(CN3C(=O)c4ccccc4C3=O)cc2)cc1` are 5.44 µM and 9.05 µM.
Take `C[C@H](O)C(=O)CCCCC[C@@H]1NC(=O)[C@H]2CCCN2C(=O)[C@H](Cc2ccccc2)NC(=O)C(C2CCCCC2)(C2CCCCC2)NC1=O`: half-maximal inhibition on Histone deacetylase 4 [1] (IC50) required 0.67 µM.
`C[C@@H](O)C(=O)CCCCC[C@@H]1NC(=O)[C@H]2CCCN2C(=O)[C@H](Cc2ccccc2)NC(=O)[C@H](n2ccc3ccccc32)NC1=O`: it took 0.02 µM to reach half-maximal inhibition against Histone deacetylase 4 [1] (IC50).
Turning to `O=C(CCCCCNC(=O)c1cc2ccccc2[nH]1)NO`, in [4], the IC50 came out at 0.014 µM.
In the data set with MCF7 [5], `COc1ccc(/C=C\c2cc(OC)c(OC)c(OC)c2)cc1O` [COMBRETASTATIN A4] displayed an IC50 of 4.85 µM.
`O=C(NCCSSCCNC(=O)/C(Cc1ccc(O)c(Br)c1)=N/O)/C(Cc1ccc(O)c(Br)c1)=N/O` [PSAMMAPLIN A]: in the data set on P388, the IC50 came to 0.3 µg/mL (≈ 0.452 µM).
With `CCCC(=O)[O-].[Na+]` [SODIUM BUTYRATE], the IC50 with MDA-MB-231 amounted to 600 µM; on Histone deacetylase 2 [12] it was 12 µM; on Histone deacetylase 3, 9 µM; in the data set on MCF7 [9], 500 µM; with T47D [13] it was 700 µM; at Histone deacetylase 8 it was 15 µM. In addition, the results for the IC50 in the data set with BT-20 and at Histone deacetylase 1 [14] were 1400 µM and 16 µM, respectively.
For `CC(/C=C/C(=O)NO)=C\[C@@H](C)C(=O)c1ccc(N(C)C)cc1` [TRICHOSTATIN], the IC50 worked out at 0.0333 µM in the data set on BT-474, 0.0264 µM with T47D [15] and 0.0277 µM with MCF7 [16].
As to `CCCC(CCC)C(=O)O` [VALPROIC ACID], the IC50 was found to be 1000 µM at Histone deacetylase 4 [17]; 1000 µM on Histone deacetylase 5; 1000 µM in data set [18]; 230 µM with MCF7 [9]; 400 µM on Histone deacetylase 1 [19]. Moreover, the t1/2 in [20] is 7 h.

(Values after ChEMBL document CHEMBL5096206, “From natural products to HDAC inhibitors: An overview of drug discovery and design strategy” (Bioorg Med Chem, 2021).)
